Measurements from patent publication US8247400B2, “Cephem compounds useful for the treatment of bacterial infections” (priority 2009, dated 2012).
“And” between values parts separate entries of the source, which are not always exact repeats. Identical values can stand only once.

How the values were obtained:
[1] = test system: Salmonella typhimurium; test: Agar diffusion antibacterial activity; assay type: cell-based; conditions: for Zone of Inhibition (mm) (average of 3 plates): Compound A approx. 22 μg/disk, Gentamicin 10 mcg per disk, 30-35° C., 2 days
Procedure: (§1) The antibiotic activity of Compound A (as the hydrochloride salt) was tested by Agar Diffusion against the following bacterial strains: Staphylococcus aureus, Salmonella typhimurium, Escherichia coli and Pseudomonas aureus. The antibiotic activity of Compound A was compared to that observed for the antibiotic gentamicin (positive control antibiotic). 0.85% saline solution was used as a negative control. The protocol is provided below. A solution containing Compound A hydrochloride, 20 ug per disk, was added to BBL™ Sensi-Disc™. Fifteen Petri dish filled with an agar medium were prepared a day before their use. These were utilized for testing of 5 microorganisms (4 bacterial species including Staphylococcus aureus, Salmonella typhimurium, Pseudomonas aeruginosa, and Escherichia coli, and one fungus (Candida albicans). Triplicate plates were then streaked with each specific microorganism. Twelve plates to be utilized for antibacterial testing were applied with positive control and negative control discs. Positive control discs are impregnated with gentamycin and are available from Becton, Dickinson and Co (ready to be used cartridges, “BBL™ Sensi-Disc™ Antimicrobial Susceptibility Test Discs”). Negative control discs were prepared by soaking dry disks with normal saline solution. These discs were applied by means of a BBL™ dispenser, using aseptic precautions. The remaining (three) plates to be utilized for antifungal properties were also applied with positive and negative controls; however, in this case positive control discs were impregnated with nystatin (available as BBL™ Taxo™ Nystatin Discs Cartridge from BD & Co). Fifteen dry discs (identical to those of positive and negative control discs but with unique identification print on one side, “NY”) were soaked with a solution of Compound A hydrochloride for about 5 minutes. The discs were then carefully transferred (using a sterile forceps) to a sterile empty Petri dish to decant off any excess test solution. Then one disc was applied to each of fifteen plates that were previously applied with positive and negative controls. The approximate loading of compound A was 22 μg/disk. Triplicate plates for each microorganism were assembled together and properly labeled prior to incubation. Plates for antibacterial testing were incubated at 30-35° C. (for 2 days) while for antifungal testing plates were incubated at 24° C. Plates were read for zones of inhibition using Vernier calipers.

[2] = Agar diffusion antibacterial activity; assay type: cell-based; conditions: Pseudomonas aureus; for Zone of Inhibition (mm) (average of 3 plates): Compound A approx. 22 μg/disk, Gentamicin 10 mcg per disk, 30-35° C., 2 days
Procedure: as §1

[3] = test system: Staphylococcus aureus; test: Agar diffusion antibacterial activity; assay type: cell-based; conditions: for Zone of Inhibition (mm) (average of 3 plates): Compound A approx. 22 μg/disk, Gentamicin 10 mcg per disk, 30-35° C., 2 days
Procedure: as §1

[4] = test system: Escherichia coli; test: Agar diffusion antibacterial activity; assay type: cell-based; conditions: for Zone of Inhibition (mm) (average of 3 plates): Compound A approx. 22 μg/disk, Gentamicin 10 mcg per disk, 30-35° C., 2 days
Procedure: as §1

[5] = pH solubility profile of Compound A in USP buffers at room temperature; assay type: physicochemical; conditions: for Approximate Solubility: room temperature
Procedure: Testing was conducted using a reciprocating platform shaker (Heidolph® Promax 1020).

[6] = Room temperature stability of the 4.20 mg/ml Compound A dosage form (Table 8); assay type: physicochemical
Procedure: An example of a dosage form containing 4.20 mg/ml of Compound A that is suitable for parenteral (e.g., IM or IV) administration is provided in Table 8. The propylene glycol, PEG-300 and ethanol were added to a volumetric flask and mixed. The acetate buffer pH 5.0 (1M) was then added q.s to volume and the contents of the flask were mixed. Compound A was added to a separate clear dry volumetric flask. Approximately ⅓ of the total propylene glycol, PEG-300 and ethanol mixture was added and the resulting mixture was shaken vigorously for 2 minutes. The remainder of the mixture was then added to the flask to make up the volume. The contents were mixed by gentle shaking or by sonication until a clear solution was obtained. The solution was then filtered through a 0.22μ filter (Millex® GV) using a sterile disposable syringe or vial.

[7] = Solubility of Compound A in solvent mixtures; assay type: physicochemical
[8] = Room temperature stability of the 1.0 mg/ml parenteral dosage form with L-arginine (Table 10); assay type: physicochemical; conditions: for % Assay / pH: 1 mg/ml solution with L-arginine in normal saline (Table 10)
Procedure: An example of a dosage form containing 1.0 mg/ml of Compound A hydrochloride that is suitable for parenteral (e.g., IM or IV) administration is provided in Table 10. The L-arginine was dissolved in saline and the pH of the solution was adjusted to ˜8.0 using 0.05N HCl. Compound A was then added and the pH of the solution was adjusted to ˜7.40. The solution was then filtered through a 0.22 μm filter.

[9] = test system: rats (CD® strain); test: Four-week intravenous toxicity study in rats; assay type: in vivo; conditions: 9 mg/kg/day, over a period of 28 days
Procedure: The potential toxicity of an intravenously administered formulation of Compound A (average concentration analysis=95.6%) was studied for four weeks in rats (CD® strain). The vehicle (L-arginine dissolved in saline, 21.7 mg/ml), control (saline solution) and test solutions were administered by an intravenous infusion in the cannulated femoral vein through a dosing port. The dose was administered once per day at approximately the same time (±2 hours) each day throughout the duration of the study. The dose volume was 10 ml/kg per day. All doses were administered using a syringe infusion pump set for the appropriate infusion rate to deliver the proper dose volume over the required infusion duration of 15 minutes. All animals across all groups were examined prior to exposure and all the main study survivors were examined again at the end of study. […] Detailed clinical examinations were made for each animal daily during treatment (approx 30 to 60 minutes post-dosing).

[10] = test system: thymidine kinase locus of L5178Y mouse lymphoma cells; conditions: vehicle DMSO, maximum concentration 5000 μg/ml
Procedure: In vitro genotoxicity studies were conducted as a mouse lymphoma study and a chromosomal aberration test. The vehicle was DMSO and the maximum concentration to be tested was 5000 μg/ml for both studies.
In Vitro Mammalian Cell Gene Mutation Test
(L5178Y/TK^+/− Mouse Lymphoma Assay)
The purpose of this study was to evaluate the genotoxic potential of the test article based on quantitation of forward mutations at the thymidine kinase locus of L5178Y mouse lymphoma cells and the sizing of the resulting colonies.
Negative: Test article solvent (or vehicle)
Positive: Methyl methanesulfonate (MMS)
7,12-dimethylbenz(a)anthracene (DMBA)

[11] = test system: human peripheral blood lymphocytes (HPBL); test: In vitro mammalian chromosome aberration test; assay type: cell-based; conditions: vehicle DMSO, maximum concentration 5000 μg/ml
Excerpt: [B] In Vitro Mammalian Chromosome Aberration Test
The purpose of this study was to evaluate the clastogenic potential of a test article based upon its ability to induce chromosome aberrations in human peripheral blood lymphocytes (HPBL).
Negative: Test Article Solvent (or Vehicle)
Positive: Mitomycin C (MMC, CAS number 50-07-7)
Cyclophosphamide (CP, CAS number 6055-19-2)

[12] = versus Gentamicin (10 mcg per disk)
[13] = pH 7.0 (0.1 M Potassium Phosphate)
[14] = pH 9.0 (0.1 M Potassium phosphate)
[15] = 4.20 mg/ml Compound A in propylene glycol/ethanol/PEG-300/acetate buffer pH 5.0 (Table 8), batches 1-4

With CCO/N=C(\C(=O)N[C@@H]1C(=O)N2C(C(=O)[O-])=C(Sc3nc(-c4cc[n+](C)cc4)cs3)CS[C@H]12)c1nsc(NC(C)=O)n1.Cl [Compound A hydrochloride, (6R,7R)-7-[[(2Z)-2-(ethoxyimino)-2-[5-(acetamido)-1,2,4-thiadiazol-3-yl]acetyl]amino]-3-[[4-(1-methylpyridini-1-ium-4-yl)-1,3-thiazol-2-yl]sulfanyl]-8-oxo-5-thia-1-azabicylo[4.2.0]oct-2-ene-2-carboxylate hydrochloride] the “Zone of Inhibition (mm) (average of 3 plates)” value (from here on “Zone of Inhibition (mm)”) [1] was 21.12 mm, the “antibacterial activity relative to Gentamicin” value [1, 12] was 117% and the “antibacterial activity (in words)” value [2] was “moderate activity”. For the same molecule, the “Zone of Inhibition (mm)” value [2] was 9.68 mm, the “Zone of Inhibition (mm)” value [3] was 36.71 mm and the “antibacterial activity relative to Gentamicin” value [3, 12] was 173%. The “Zone of Inhibition (mm)” value [4] was 23.82 mm and the “antibacterial activity relative to Gentamicin” value [4, 12] was 118%.

In the case of Gentamicin [reference compound], the “Zone of Inhibition (mm)” value [1] is reported as 18.03 mm, the “Zone of Inhibition (mm)” value [2] is reported as 20.17 mm and the “Zone of Inhibition (mm)” value [3] is reported as 21.27 mm. The “Zone of Inhibition (mm)” value [4] was 20.27 mm.

With CCO/N=C(\C(=O)N[C@@H]1C(=O)N2C(C(=O)[O-])=C(Sc3nc(-c4cc[n+](C)cc4)cs3)CS[C@H]12)c1nsc(NC(C)=O)n1 [Compound A, (6R,7R)-7-[[(2Z)-2-(ethoxyimino)-2-[5-(acetamido)-1,2,4-thiadiazol-3-yl]acetyl]amino]-3-[[4-(1-methylpyridinium-4-yl)-1,3-thiazol-2-yl]sulfanyl]-8-oxo-5-thia-1-azabicylo[4.2.0]oct-2ene-2-carboxylate] the Description ([5]; pH 1.0 (0.2 M KCl—HCl)) was “Solution”, the “Approximate Solubility” value ([5]; pH 1.0 (0.2 M KCl—HCl)) was 500 µg/mL and the Description ([5]; pH 3.0 (0.1 M Sodium acetate)) was “Solution”. The “Approximate Solubility” value ([5]; pH 3.0 (0.1 M Sodium acetate)) was 4700 µg/mL, the Description ([5]; pH 5.0 (0.05 M Sodium acetate)) was “Gel” and the “Approximate Solubility” value ([5]; pH 5.0 (0.05 M Sodium acetate)) was 800 µg/mL. For the same molecule, the Description ([5]; pH 5.0 (0.1 M Sodium acetate)) was “Gel”, the “Approximate Solubility” value ([5]; pH 5.0 (0.1 M Sodium acetate)) was 400 µg/mL and the Description ([5]; pH 5.0 (0.5 M Sodium acetate)) was “Gel”. For the same molecule, the “Approximate Solubility” value ([5]; pH 5.0 (0.5 M Sodium acetate)) was 500 µg/mL, the Description [5, 13] was “Gel” and the “Approximate Solubility” value [5, 13] was 400 µg/mL. For the same molecule, the Description [5, 14] was “Solution”, the “Approximate Solubility” value [5, 14] was 13300 µg/mL and the “Initial Assay (%)” value [6, 15] was 99.2% and 101.3% and 100.5% and 98.5%. The “Initial pH” value [6, 15] was 6.06 and 6.08 and 6.13, the “Final Assay (%)” value ([6]; 4.20 mg/ml Compound A solution (Table 8), 3 hrs at RT, batch 4) was 96.9 (3 hrs at RT) % and the “Final Assay (%)” value ([6]; 4.20 mg/ml Compound A solution (Table 8), 5 hrs at RT, batches 2 and 3) was 97.9 (5 hrs at RT) % and 95.6 (5 hrs at RT) %. For the same molecule, the “Final pH” value ([6]; 4.20 mg/ml Compound A solution (Table 8), batch 4, 3 hrs at RT) was 5.99, the “Approximate Solubility” value ([7]; 8% Propylene Glycol, 2% Ethanol, 2% PEG-300, 5% 1-Methyl-2-pyrrolidinone, 83% Acetate buffer pH 5 (1M)) was 2000 µg/mL and the “Approximate Solubility” value ([7]; 8% Propylene Glycol, 2% Ethanol, 2% PEG-300, 88% Acetate buffer pH 5 (1M)) was 1800 µg/mL. For the same molecule, the “Approximate Solubility” value ([7]; 8% Propylene Glycol, 2% Ethanol, 5% Benzyl alcohol, 85% Acetate buffer pH 5 (1M) (first entry, r11)) was 1500 µg/mL, the “Approximate Solubility” value ([7]; 8% Propylene Glycol, 2% Ethanol, 5% Benzyl alcohol, 85% Acetate buffer pH 5 (1M) (second entry, r17)) was 3500 µg/mL and the “Approximate Solubility” value ([7]; 8% Propylene Glycol, 2% Ethanol, 90% Acetate buffer pH 5 (1M)) was 1500 µg/mL. For the same molecule, the “Approximate Solubility” value ([7]; 8% Propylene Glycol, 2% PEG-300, 5% Benzyl alcohol, 85% Acetate buffer pH 5 (1M)) was 4000 µg/mL, the “Approximate Solubility” value ([7]; 8% Propylene Glycol, 9% PEG-300, 83% Acetate buffer pH 5 (1M)) was 1100 µg/mL and the “Approximate Solubility” value ([7]; 10% Sodium benzoate in Normal Saline, pH 6.5) was 4200 µg/mL. The “Approximate Solubility” value ([7]; 10% Sodium benzoate in water, pH 6.3) was 4200 µg/mL, the “Approximate Solubility” value ([7]; 40% Propylene Glycol, 2.5% Ethanol, 57.5% Acetate buffer pH 5) was 4200 µg/mL and the “Approximate Solubility” value ([7]; 60% Propylene Glycol, 2.5% Ethanol, 37.5% Acetate buffer pH 5) was over 25000 µg/mL. The “Approximate Solubility” value ([7]; Dimethyl sulfoxide (DMSO)) was 212000 µg/mL, the “Approximate Solubility” value ([7]; Ethanol) was 1500 µg/mL and the “Approximate Solubility” value ([7]; Methanol) was 400000 µg/mL. For the same molecule, the “Approximate Solubility” value ([7]; Sterile water for injection USP) was 800 µg/mL, the “% Assay” value ([8]; 2 hours) was 95.3% and the pH ([8]; 2 hours) was 7.34. For the same molecule, the “% Assay” value ([8]; 4 hours) was 95.1%, the pH ([8]; 4 hours) was 7.41 and the “% Assay” value ([8]; Initial) was 95.7%. For the same molecule, the pH ([8]; Initial) was 7.35, the “stability of the solution (in words)” value ([8]; solution containing 1 mg/ml of Compound A) was “stable” and the adverse clinical events [9] was “did not show any adverse clinical events”. For the same molecule, the “genotoxicity result, mouse lymphoma study” value [10] was “negative” and the “genotoxicity result, chromosomal aberration study using human lymphocytes” value [11] was “negative”.
